# Data: PubChem BioAssay (NCI)
#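 Cultured in 96-well plates, cells were exposed to test compound for 48 hours across five concentrations. GI50 = concentration required for 50% inhibition of growth. Definition used: TGI = concentration required for complete inhibition of growth.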 Where a SMILES comes first, the peptide text is derived from it. The star is where a group is joined. Cbz = O=C(OCc1ccccc1)*; Bn = c1ccc(C*)cc1
# How the values were obtained:
# Experiment in all cases: DTP human tumour cell line panel, 48 h
# [1] = system: CAKI-1 renal
# [2] = system: HCC-2998 colon
# [3] = system: HOP-92 NSCLC
# [4] = system: MALME-3M melanoma
# [5] = system: MOLT-4 leukemia
# [6] = system: OVCAR-3 ovarian
# [7] = system: OVCAR-4 ovarian
# [8] = system: SF-539 CNS
# [9] = system: SNB-19 CNS
# [10] = system: UO-31 renal
# [11] = system: SR leukemia
SMILES,TGI [1] [µM],TGI [2] [µM],TGI [3] [µM],TGI [4] [µM],TGI [5] [µM],TGI [6] [µM],TGI [7] [µM],TGI [8] [µM],TGI [9] [µM],TGI [10] [µM],TGI [11] [µM],GI50 [3] [µM],GI50 [4] [µM],GI50 [6] [µM],GI50 [7] [µM],GI50 [8] [µM],GI50 [11] [µM],GI50 [10] [µM],GI50 [1] [µM],GI50 [2] [µM]
CCn1c(=O)c(C(=O)O)c(Cl)c2cc3c(cc21)OCO3,> 100,> 100,> 100,> 100,> 100,> 100,> 100,> 100,> 100,> 100,–,–,–,–,–,–,–,–,–,–
CC(=O)OCC1OC(NC(=O)N(CCCl)N=O)C(OC(C)=O)C(OC(C)=O)C1OC(C)=O (stereo not given),> 100,> 100,> 100,> 100,> 31.6,> 100,> 100,> 100,> 100,> 100,–,–,–,–,–,–,–,–,–,–
CC1C[C@]2(C[C@@H](C)C(=O)O2)OC2CC3(C)C4CCC5C(C)(C)OC(=O)CC[C@@]56C[C@@]46CC[C@]3(C)C12 (stereo not given in full),> 100,> 100,> 100,> 100,> 100,–,> 100,> 100,> 100,–,> 100,–,–,–,–,–,–,–,–,–
c1ccc(-c2n(Cc3ccc4ccccc4c3)c3ccccc3[n+]2Cc2ccc3ccccc3c2)cc1,–,–,0.508,0.768,–,1.03,0.818,1.29,–,2.75,1.64,0.117,0.242,0.259,0.245,0.336,0.343,1.36,–,–
N=C(N)c1ccc(-c2ccc(-c3ccc4ccccc4c3)s2)s1,11.6,4.48,–,9.36,–,3.7,–,4.57,–,4.49,–,–,3.1,1.89,–,1.97,–,1.97,3.11,2.02
COC(=O)C(Cc1ccc(O)cc1)NC(=O)C(COCc1ccccc1)NC(=O)OCc1ccccc1 (stereo not given) (Cbz-Ser(Bn)-Tyr-OMe; configuration not given here),36.4,17.3,60.8,39.6,> 100,31.8,34,34.2,31.2,36.5,> 100,–,–,–,–,–,–,–,–,–
C1CSCCSCSCCS1,> 100,> 100,> 100,–,–,> 100,> 100,> 100,> 100,> 100,–,–,–,–,–,–,–,–,–,–
COc1ccc(-c2oc3cc(OC(C)=O)cc(OC(C)=O)c3c(=O)c2OC)cc1,34.9,32.3,–,65.6,68.4,38.6,–,–,79.4,51.7,51.5,–,–,–,–,–,–,–,–,–
CCCCSCC(NC(=O)/C=C/c1c(C)[nH]c(=O)[nH]c1=O)C(=O)OC (stereo not given),155,132,189,65.7,205,77.2,> 89,254,204,243,–,–,–,–,–,–,–,–,–,–
C=CCOCCC(CC=C)C(=O)CC(=O)OC (stereo not given),–,> 100,> 100,> 100,> 100,> 100,> 100,> 100,> 100,> 100,> 100,–,–,–,–,–,–,–,–,–
CS(=O)(=O)c1ccc2nc(-c3ccc(O)cc3)sc2c1,31.4,–,–,31,> 100,31.8,–,23.6,36.2,28,39.8,–,–,–,–,–,–,–,–,–
